Here are results for 21 compounds from PMC10978252 (Journal of medicinal chemistry, 2024).

What is called IC50 is the point on the concentration scale where inhibition reaches its midpoint.

“Also recorded” adds a separate entry of the source.

The subject of data set [1] is HIV-1 infected CD4+ T cells. To be noted: single digit micromolar concentrations; cited from earlier work.
The target in data set [2] is T1, HIV-Nef (Human immunodeficiency virus type 1, UniProt P03406).
T1 sequence (P03406 2-206): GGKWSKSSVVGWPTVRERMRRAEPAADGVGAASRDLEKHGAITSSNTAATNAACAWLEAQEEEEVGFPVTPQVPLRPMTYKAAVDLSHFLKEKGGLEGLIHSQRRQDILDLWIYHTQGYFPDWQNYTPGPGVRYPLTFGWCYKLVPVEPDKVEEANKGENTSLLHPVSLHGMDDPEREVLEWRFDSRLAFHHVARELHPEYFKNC
The conditions noted are these: cited from earlier work; for MHC-I HLA-A2 restoration in HIV-infected primary T cells, side-by-side assays: B9 up to more than 10μM, CMA nanomolar.

The subject of data set [3] is Nef overexpressing HEK293T cells. To be noted: single digit micromolar concentrations; cited from earlier work.
For data set [4], the system named is primary CD4+ T cells. The data set can be described thus: 24 h viability.
Data set [5] concerns the target V-ATPase (Homo sapiens, UniProt P27449). Kind of data set: cell-based. To be noted: for V-ATPase inhibition (Lysotracker), in words / Lysotracker IC50: 24 h; for Lysotracker IC50: lysosomal neutralization / V-ATPase inhibition. Format: cell-based.
For data set [6], the target named is T1, HIV-Nef. Format: cell-based, HIV-1. The conditions noted are these: for restoration of MHC-I levels on infected (GFP+) cells: ΔGPE transduced 48 h then treated 24 h, compared to uninfected (GFP-) cells; for Nef inhibitory potency, in words (relative to parent or comparator) / Nef IC50: 24 h; for Nef IC50: HIV ΔGPE transduced primary CD4+ T cells, upper limit of assay 1000 nM.

Another data set deals with Nef. To be noted: cited from earlier work.
The next data set deals with MHC-I HLA-A2. Format: cell-based, human. To be noted: ΔGPEN; treated 24 h.
The test system of data set [7] is primary CD4+ T cells. The data set can be described thus: 72 h viability.
The subject of data set [8] is V-ATPase. To be noted: cited from earlier work.

Sequence of V-ATPase (Homo sapiens, UniProt P27449) (P27449 whole entry, looked up): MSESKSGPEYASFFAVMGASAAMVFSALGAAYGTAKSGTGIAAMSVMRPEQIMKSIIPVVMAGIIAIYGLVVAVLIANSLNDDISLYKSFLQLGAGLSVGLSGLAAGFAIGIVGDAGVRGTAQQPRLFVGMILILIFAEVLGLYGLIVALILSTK

As for `CC[C@H](C)C(=O)O[C@H]1C[C@@H](C)C=C2C=C[C@H](C)[C@H](CC[C@@H]3C[C@@H](O)CC(=O)O3)[C@H]21` [Lovastatin], the “surface expression of MHC-1 and CD4” value in [1] was “increases surface expression”. On HIV-Nef [2], the “MHC-I HLA-A2 restoration in HIV-infected primary T cells, side-by-side assays” value is reported as “partially restored” and the “concentration for partial MHC-I restoration, relative to CMA” value is recorded as 2,000 fold. Moreover, the “surface expression of SERINC5” value in data set [3] is recorded as “increases surface expression”.
As to `C[C@@H]1C[C@H](C)C[C@H](C)[C@@H](O)CC(=O)O[C@H]([C@@H]2CCC[C@H]2C(=O)O)C/C=C/C=C(/C#N)[C@H](O)[C@@H](C)C1` [S1, borrelidin], in the data set with primary CD4+ T cells [4], the “toxicity at 24 h, in words” value is on record as “toxic at 24-hrs”.
At V-ATPase [5], `C/C=C/[C@H]1O[C@@](O)([C@@H](C)[C@H](O)[C@H](C)[C@H]2OC(=O)/C(OC)=C/C(C)=C/[C@@H](C)[C@@H](O)[C@@H](CC)[C@@H](O)[C@H](C)C/C(C)=C/C=C/[C@@H]2OC)C[C@@H](O[C@H]2C[C@@H](O)[C@H](OC(N)=O)[C@@H](C)O2)[C@@H]1C` [compound 1, concanamycin A, reference compound] showed an IC50 of 1.7 nM. Besides, on HIV-Nef [6], the “restoration of MHC-I levels on infected (GFP+) cells” value is recorded as “restored MHC-I levels”. At HIV-Nef [2], the “MHC-I HLA-A2 restoration in HIV-infected primary T cells, side-by-side assays” value is on record as “near-fully restore”. Further, in the data set with Nef, the “binding between Nef and CMA” value is listed as “no binding”. The “MHC-I surface levels in cells lacking Nef” value in the data set with MHC-I HLA-A2 was “did not substantially alter MHC-I surface levels”.
For `CO/C1=C\C(C)=C\[C@@H](C)[C@@H](O)[C@@H](C)C/C(C)=C/C=C/[C@H](OC)[C@@H]([C@@H](C)[C@@H](O)[C@H](C)[C@@]2(OC)C[C@@H](O)[C@H](C)[C@@H](C(C)C)O2)OC1=O` [compound 8], on HIV-Nef [6], the “Nef inhibitory potency, in words (relative to parent or comparator)” value is “decreased potency”.
As to `CO/C1=C\C(C)=C\[C@@H](C)[C@@H](O)[C@@H](C)C/C(C)=C/C=C/[C@H](OC)[C@@H]([C@@H](C)[C@@H](O)[C@H](C)[C@H]2C[C@@H](O)[C@H](C)[C@@H](C(C)C)O2)OC1=O` [compound 9, 19-deoxy Baf A1], the “Nef inhibitory potency, in words (relative to parent or comparator)” value at HIV-Nef [6] was “decreased potency”.
Turning to `CO/C1=C\C(C)=C\[C@@H](C)[C@@H](O)[C@@H](C)C/C(C)=C/C=C/[C@H](OC)[C@@H]([C@@H](C)[C@@H](O)[C@H](C)[C@H]2C[C@@H](OC)[C@H](C)[C@@H](C(C)C)O2)OC1=O` [compound 10], the “Nef inhibitory potency, in words (relative to parent or comparator)” value at HIV-Nef [6] is on record as “decreased potency”.
Regarding `CO/C1=C\C(C)=C\[C@@H](C)[C@@H](O)[C@@H](C)C/C(C)=C/C=C/[C@H](OC)[C@@H]([C@@H](C)[C@@H](O)[C@H](C)[C@H]2C=C(O)[C@H](C)[C@@H](C(C)C)O2)OC1=O` [compound 11], the “Nef inhibitory potency, in words (relative to parent or comparator)” value at HIV-Nef [6] is “decreased potency”.
With `C=CC(C)C(OC(=O)[C@@H](C)[C@H](O)[C@H](C)[C@H]1OC(=O)/C(OC)=C/C(C)=C/[C@@H](C)[C@@H](O)[C@@H](C)C/C(C)=C/C=C/[C@@H]1OC)C(C)C` (stereo partly drawn) [compound 12], the “V-ATPase inhibition (Lysotracker), in words” value at V-ATPase [5] is “Dramatic reductions”. In addition, on HIV-Nef [6] (vs Baf A1), the “decrease in Nef potency compared to 2” value stood at 26 fold. Further, the “toxicity, in words” value with primary CD4+ T cells [7] is listed as “Dramatic reductions”.
For the compound `CCCCC(=O)O[C@@H]1C[C@](O)([C@@H](C)[C@H](O)[C@H](C)[C@H]2OC(=O)/C(OC)=C/C(C)=C/[C@@H](C)[C@@H](O)[C@@H](C)C/C(C)=C/C=C/[C@@H]2OC)O[C@H](C(C)C)[C@H]1C` [compound 14], on HIV-Nef [6], the “Nef inhibitory potency, in words (relative to parent or comparator)” value is on record as “decreased potency; also recorded: opposite effect”.
As for `CCCCCCCCC(=O)O[C@@H]1C[C@](O)([C@@H](C)[C@H](O)[C@H](C)[C@H]2OC(=O)/C(OC)=C/C(C)=C/[C@@H](C)[C@@H](O)[C@@H](C)C/C(C)=C/C=C/[C@@H]2OC)O[C@H](C(C)C)[C@H]1C` [compound 15], the “Nef inhibitory potency, in words (relative to parent or comparator)” value on HIV-Nef [6] is on record as “decreased potency; also recorded: opposite effect”.
Turning to `C=C/C=C/C(=O)O[C@@H]1C[C@](O)([C@@H](C)[C@H](O)[C@H](C)[C@H]2OC(=O)/C(OC)=C/C(C)=C/[C@@H](C)[C@@H](O)[C@@H](C)C/C(C)=C/C=C/[C@@H]2OC)O[C@H](C(C)C)[C@H]1C` [compound 16], the “Nef inhibitory potency, in words (relative to parent or comparator)” value at HIV-Nef [6] is “decreased potency; also recorded: improved potency compared to 14 or 15”.
For `CO/C1=C\C(C)=C\[C@@H](C)[C@@H](O)[C@@H](C)C/C(C)=C/C=C/[C@H](OC)[C@@H]([C@@H](C)[C@@H](O)[C@H](C)[C@@]2(O)C[C@@H](O[C@@H]3O[C@@H](C)[C@H](O)[C@@H](O)[C@H]3OC)[C@H](C)[C@@H](C(C)C)O2)OC1=O` [compound 18, leucanicidin, reference compound], the “toxicity, in words” value with primary CD4+ T cells [7] was “significantly more toxic”.
As for `C/C=C/C=C/[C@H]1O[C@@](O)([C@@H](C)[C@H](O)[C@H](C)[C@H]2OC(=O)/C(OC)=C/C(C)=C/[C@@H](C)[C@@H](O)[C@@H](C)C/C(C)=C/C=C/[C@@H]2OC)C[C@@H](O[C@H]2C[C@@H](O)[C@H](O)[C@@H](C)O2)[C@@H]1C` [compound 19, PC-766B, reference compound], the “toxicity, in words” value in the data set on primary CD4+ T cells [7] is reported as “significantly more toxic”.
Regarding `CO/C1=C\C(C)=C\[C@@H](C)C(=O)[C@@H](C)C/C(C)=C/C=C/[C@H](OC)[C@@H]([C@@H](C)[C@@H](O)[C@H](C)[C@@]2(O)C[C@@H](O)[C@H](C)[C@@H](C(C)C)O2)OC1=O` [compound 20], the “Lysotracker IC50” value at V-ATPase [5] is “above the activity threshold”. Further, at HIV-Nef [6], the “Nef inhibitory potency, in words (relative to parent or comparator)” value was “reduced activity at all concentrations tested” and the “Nef IC50” value is reported as “above the activity threshold”.
For the compound `CO/C1=C\C(C)=C\[C@@H](C)C(=O)[C@@H](C)C/C(C)=C/C=C/[C@H](OC)[C@@H]([C@@H](C)[C@@H](O)[C@H](C)[C@@]2(O)CC(=O)[C@H](C)[C@@H](C(C)C)O2)OC1=O` [compound 21], at V-ATPase [5], the “Lysotracker IC50” value is on record as “above the activity threshold”. In addition, the “Nef IC50” value at HIV-Nef [6] is recorded as “above the activity threshold”.
As to `C/C=C/[C@H]1O[C@@](O)([C@@H](C)[C@H](O)[C@H](C)[C@H]2OC(=O)/C(OC)=C/C(C)=C/[C@@H](C)[C@@H](O)[C@@H](C)[C@@H](O)[C@H](C)C/C(C)=C/C=C/[C@@H]2OC)C[C@@H](O[C@H]2C[C@@H](O)[C@H](OC(N)=O)[C@@H](C)O2)[C@@H]1C` [compound 22, concanamycin B, reference compound], at V-ATPase [5], the “V-ATPase inhibition (Lysotracker), in words” value is recorded as “even greater decrease in V-ATPase inhibitory potency”. Also, the “decrease in Nef inhibitory potency compared to CMA (1)” value at HIV-Nef [6] (vs CMA) is reported as around 10 fold.
As for `C/C=C/[C@H]1O[C@@](O)([C@@H](C)[C@H](O)[C@H](C)[C@H]2OC(=O)/C(OC)=C/C(C)=C/[C@@H](C)[C@@H](O)[C@@H](C)[C@@H](OC(C)=O)[C@H](C)C/C(C)=C/C=C/[C@@H]2OC)C[C@@H](O[C@H]2C[C@@H](OC(C)=O)[C@H](OC(N)=O)[C@@H](C)O2)[C@@H]1C` [compound 31, 3’,9-diacetyl CMB], in the data set on primary CD4+ T cells [7], the “toxicity, in words” value is listed as “reducing toxicity”.
In the case of `C/C=C/[C@H]1O[C@@](O)([C@@H](C)[C@H](O)[C@H](C)[C@H]2OC(=O)/C(OC)=C/C(C)=C/[C@@H](C)[C@@H](O)[C@@H](CC)[C@@H](OC(C)=O)[C@H](C)C/C(C)=C/C=C/[C@@H]2OC)C[C@@H](O[C@H]2C[C@@H](OC(C)=O)[C@H](OC(N)=O)[C@@H](C)O2)[C@@H]1C` [compound 33, 3’,9-diacetyl CMA], the “restoration of MHC-I levels on infected (GFP+) cells” value at HIV-Nef [6] is given as “restored MHC-I levels”. Besides, in the data set on MHC-I HLA-A2, the “MHC-I surface levels in cells lacking Nef” value is “did not substantially alter MHC-I surface levels”.
Take `C/C=C/[C@H]1O[C@@H]([C@@H](C)[C@H](O)[C@H](C)[C@H]2OC(=O)/C(OC)=C/C(C)=C/[C@@H](C)[C@@H](O)[C@@H](CC)[C@@H](O)[C@H](C)C/C(C)=C/C=C/[C@@H]2OC)C[C@@H](O)[C@@H]1C` [compound 38, 21-deoxy CMF]: the “Nef inhibitory potency, in words (relative to parent or comparator)” value on HIV-Nef [6] is recorded as “no change in potency”.
Take `C/C=C/[C@H]1O[C@@H]([C@@H](C)[C@H](O)[C@H](C)[C@H]2OC(=O)/C(OC)=C/C(C)=C/[C@@H](C)[C@@H](O)[C@@H](CC)[C@@H](O)[C@H](C)C/C(C)=C/C=C/[C@@H]2O)C[C@@H](O)[C@@H]1C` [compound 39, 21-deoxy-16-hydroxy CMF]: at HIV-Nef [6] (vs CMF), the “reduction of Nef inhibitory activity compared to CMF (24)” value was “over 200 fold”.
bafilomycin D [Baf D]: at HIV-Nef [2], the “Nef inhibition, in words” value is listed as “poor inhibitor”. In the data set with V-ATPase [8], the “V-ATPase inhibition, in words” value is recorded as “poor inhibitor”.
